Assay results published in patent publication EP0067084B1, “Eye-lotion compositions for the treatment of conjunctivitis and keratitis” (Laboratoires P.O.S. Société Anonyme dite:, priority 1981, dated 1982).

How the values were obtained:
[1] = tested on: chien; test: Chronic toxicity in the dog, oral, 13 weeks; type: in vivo; conditions: 35 mg/Kg/jour, 13 semaines
[2] = tested on: lapin; test: Chronic toxicity in the rabbit, ocular instillation, 13 weeks; type: in vivo; conditions: instillation oculaire, 4 doses par jour, solution à 0,9 g (pour 100 ml), 13 semaines
[3] = Solubility (description of the product); type: physicochemical

- solubility in water ([3]; eau): insoluble dans l'eau
- solubility in organic solvents ([3]; méthanol, chloroforme, acétone, benzène): soluble dans divers solvants organique
SMILES: CCCCCCCCCCCCOCCCN [Lopa, amino-1 dodécyloxy-3 propane]
- toxicité locale et/ou systématique [1]: aucune toxicité locale et/ou systématique
- toxicité locale et/ou systématique [2]: aucune toxicité locale et/ou systématique
